Reference: article PMC5917001, “Counter-ion effect on antistaphylococcal activity and cytotoxicity of selected antimicrobial peptides” (Amino Acids, 2018)
Where no end group is shown, it is not given here.

Legend:
[1] = tested on: human red blood cells (RBCs)
Method: Fresh human red blood cells (RBCs) with EDTA as anticoagulant were rinsed three times with phosphate-buffer saline (PBS) by centrifugation at 800 × g for 10 min and resuspended in PBS. […] Then, the stock solution of RBCs was added to reach a final volume of 100 µL with 4% concentration of erythrocytes (v/v). The control wells for 0% hemolysis and 100% hemolysis consisted of RBCs suspended in PBS and 1% of Triton X–100, respectively. Subsequently, the plates were incubated for 60 min at 37 °C and then centrifuged at 800 × g for 10 min at 4 °C (Sorvall ST 16R Centrifuge, Thermo Scientific). After centrifugation, the supernatant was carefully resuspended to new microtiter plates and the release of hemoglobin was monitored by measurement of absorbance at 540 nm (Multiskan™ GO Microplate Spectrophotometer, Thermo Scientific). All experiments were conducted in triplicate.

[2] = tested on: S. aureus (29): reference (5) and clinical (24) strains; conditions: for Mean value of MIC: mean over 29 S. aureus strains (Table 5); for Mean MIC values: mean over 29 S. aureus strains, as repeated in Table 6
Method: Microbiological assays were performed using reference and clinical strains of Staphylococcus aureus. Minimal inhibitory concentrations (MIC) were determined by broth microdilution method on 96-well polystyrene plates according to Clinical and Laboratory Standards Institute (CLSI) recommendations [Clinical and Laboratory Standards Institute (CLSI) [2012]]. […] All plates were incubated for 18 h at 37 °C. […] Reference strains of S. aureus: ATCC 6538, ATCC 6538/P, ATCC 9144, ATCC 12598, and ATCC 25923 were obtained from the Polish Collection of Microorganisms (PCM, Polish Academy of Sciences, Wrocław), whereas 24 clinical strains were isolated from the patients of the Clinic of Dermatology, Venereology and Allergology (Medical University of Gdańsk). Nine strains were characterized as methicillin-resistant (MRSA). Preliminary identification and detection was conducted on the ChromID MRSA/ChromID S. aureus biplate (bioMérieux) for the simultaneous detection of S. aureus and methicillin-resistant S. aureus (MRSA). All experiments were conducted at least in triplicate.
To asses an overall activity of peptides, the mean MIC values were calculated.

S. aureus 005S = assay type: cell-based, Staphylococcus aureus; conditions: clinical strain, broth microdilution, 0.5 × 10^5 CFU/mL, 18 h, 37 °C, at least triplicate
Method: (§1) Microbiological assays were performed using reference and clinical strains of Staphylococcus aureus. Minimal inhibitory concentrations (MIC) were determined by broth microdilution method on 96-well polystyrene plates according to Clinical and Laboratory Standards Institute (CLSI) recommendations [Clinical and Laboratory Standards Institute (CLSI) [2012]]. For this purpose, the initial inoculums of 0.5 × 10^5 CFU/mL of bacteria were exposed to a range of concentrations of the peptides (0.5–256 µg/mL). All plates were incubated for 18 h at 37 °C. MIC was taken as the lowest concentration of the compound at which the growth of bacteria was not observed. Reference strains of S. aureus: ATCC 6538, ATCC 6538/P, ATCC 9144, ATCC 12598, and ATCC 25923 were obtained from the Polish Collection of Microorganisms (PCM, Polish Academy of Sciences, Wrocław), whereas 24 clinical strains were isolated from the patients of the Clinic of Dermatology, Venereology and Allergology (Medical University of Gdańsk). Nine strains were characterized as methicillin-resistant (MRSA). Preliminary identification and detection was conducted on the ChromID MRSA/ChromID S. aureus biplate (bioMérieux) for the simultaneous detection of S. aureus and methicillin-resistant S. aureus (MRSA). All experiments were conducted at least in triplicate.

S. aureus ATCC 12598 = assay type: cell-based, Staphylococcus aureus; conditions: ATCC 12598, reference strain; broth microdilution, 0.5 × 10^5 CFU/mL, 18 h, 37 °C, at least triplicate
Method: as §1

S. aureus 013S = assay type: cell-based, Staphylococcus aureus; conditions: clinical strain, broth microdilution, 0.5 × 10^5 CFU/mL, 18 h, 37 °C, at least triplicate
Method: as §1

S. aureus K46N = assay type: cell-based, Staphylococcus aureus; conditions: clinical strain, broth microdilution, 0.5 × 10^5 CFU/mL, 18 h, 37 °C, at least triplicate
Method: as §1

S. aureus 002N = assay type: cell-based, Staphylococcus aureus; conditions: clinical strain, broth microdilution, 0.5 × 10^5 CFU/mL, 18 h, 37 °C, at least triplicate
Method: as §1

S. aureus K50S = assay type: cell-based, Staphylococcus aureus; conditions: clinical strain, broth microdilution, 0.5 × 10^5 CFU/mL, 18 h, 37 °C, at least triplicate
Method: as §1

S. aureus 060S = assay type: cell-based, Staphylococcus aureus; conditions: clinical strain, broth microdilution, 0.5 × 10^5 CFU/mL, 18 h, 37 °C, at least triplicate
Method: as §1

S. aureus 002S = assay type: cell-based, Staphylococcus aureus; conditions: clinical strain, broth microdilution, 0.5 × 10^5 CFU/mL, 18 h, 37 °C, at least triplicate
Method: as §1

S. aureus 001N (MRSA) = assay type: cell-based, Staphylococcus aureus; conditions: clinical strain, broth microdilution, 0.5 × 10^5 CFU/mL, 18 h, 37 °C, at least triplicate
Method: as §1

S. aureus ATCC 6538/P = assay type: cell-based, Staphylococcus aureus; conditions: reference strain, broth microdilution, 0.5 × 10^5 CFU/mL, 18 h, 37 °C, at least triplicate
Method: as §1

S. aureus 053N = assay type: cell-based, Staphylococcus aureus; conditions: clinical strain, broth microdilution, 0.5 × 10^5 CFU/mL, 18 h, 37 °C, at least triplicate
Method: as §1

S. aureus 004N (MRSA) = assay type: cell-based, Staphylococcus aureus; conditions: clinical strain, broth microdilution, 0.5 × 10^5 CFU/mL, 18 h, 37 °C, at least triplicate
Method: as §1

S. aureus 017N (MRSA) = assay type: cell-based, Staphylococcus aureus; conditions: clinical strain, broth microdilution, 0.5 × 10^5 CFU/mL, 18 h, 37 °C, at least triplicate
Method: as §1

S. aureus ATCC 25923 = assay type: cell-based, Staphylococcus aureus; conditions: ATCC 25923, reference strain; broth microdilution, 0.5 × 10^5 CFU/mL, 18 h, 37 °C, at least triplicate
Method: as §1

S. aureus 045N = assay type: cell-based, Staphylococcus aureus; conditions: clinical strain, broth microdilution, 0.5 × 10^5 CFU/mL, 18 h, 37 °C, at least triplicate
Method: as §1

S. aureus 051S = assay type: cell-based, Staphylococcus aureus; conditions: clinical strain, broth microdilution, 0.5 × 10^5 CFU/mL, 18 h, 37 °C, at least triplicate
Method: as §1

S. aureus 001S (MRSA) = assay type: cell-based, Staphylococcus aureus; conditions: clinical strain, broth microdilution, 0.5 × 10^5 CFU/mL, 18 h, 37 °C, at least triplicate
Method: as §1

S. aureus 039N = assay type: cell-based, Staphylococcus aureus; conditions: clinical strain, broth microdilution, 0.5 × 10^5 CFU/mL, 18 h, 37 °C, at least triplicate
Method: as §1

S. aureus 030N = assay type: cell-based, Staphylococcus aureus; conditions: clinical strain, broth microdilution, 0.5 × 10^5 CFU/mL, 18 h, 37 °C, at least triplicate
Method: as §1

S. aureus 024N (MRSA) = assay type: cell-based, Staphylococcus aureus; conditions: clinical strain, broth microdilution, 0.5 × 10^5 CFU/mL, 18 h, 37 °C, at least triplicate
Method: as §1

S. aureus 017S (MRSA) = assay type: cell-based, Staphylococcus aureus; conditions: clinical strain, broth microdilution, 0.5 × 10^5 CFU/mL, 18 h, 37 °C, at least triplicate
Method: as §1

S. aureus 043SC (MRSA) = assay type: cell-based, Staphylococcus aureus; conditions: clinical strain, broth microdilution, 0.5 × 10^5 CFU/mL, 18 h, 37 °C, at least triplicate
Method: as §1

S. aureus 048S = assay type: cell-based, Staphylococcus aureus; conditions: clinical strain, broth microdilution, 0.5 × 10^5 CFU/mL, 18 h, 37 °C, at least triplicate
Method: as §1

S. aureus ATCC 6538 = assay type: cell-based, Staphylococcus aureus; conditions: ATCC 6538, reference strain; broth microdilution, 0.5 × 10^5 CFU/mL, 18 h, 37 °C, at least triplicate
Method: as §1

S. aureus 051N (MRSA) = assay type: cell-based, Staphylococcus aureus; conditions: clinical strain, broth microdilution, 0.5 × 10^5 CFU/mL, 18 h, 37 °C, at least triplicate
Method: as §1

S. aureus K19N = assay type: cell-based, Staphylococcus aureus; conditions: clinical strain, broth microdilution, 0.5 × 10^5 CFU/mL, 18 h, 37 °C, at least triplicate
Method: as §1

S. aureus 015N (MRSA) = assay type: cell-based, Staphylococcus aureus; conditions: clinical strain, broth microdilution, 0.5 × 10^5 CFU/mL, 18 h, 37 °C, at least triplicate
Method: as §1

S. aureus 033N = assay type: cell-based, Staphylococcus aureus; conditions: clinical strain, broth microdilution, 0.5 × 10^5 CFU/mL, 18 h, 37 °C, at least triplicate
Method: as §1

S. aureus ATCC 9144 = assay type: cell-based, Staphylococcus aureus; conditions: ATCC 9144, reference strain; broth microdilution, 0.5 × 10^5 CFU/mL, 18 h, 37 °C, at least triplicate
Method: as §1

[3] = prolonged storage; in words; ref Nayan Desai [2013]; cited from earlier work

FLPLIGRVLSGIL-NH2 [Temporin A]
hemolysis ([1]; at 256 µg/mL, human RBCs 4% (v/v) in PBS, 60 min, 37 °C, absorbance 540 nm, 100% = 1% Triton X-100, triplicate): ≤ 4%
hemolysis of RBCs ([1]; human RBCs, in words): almost undetectable
MIC range among strains ([2]; range over all S. aureus strains and the salts of the peptide): 2 to 8 µg/mL

FLPLIGRVLSGIL-NH2 [Temporin A Cl^−]
Mean value of MIC [2]: 5.7 µg/mL
Mean MIC values [2]: 5.7 µg/mL
MIC (S. aureus 005S): 4 µg/mL
MIC (S. aureus ATCC 12598): 4 µg/mL
MIC (S. aureus 013S): 4 µg/mL
MIC (S. aureus K46N): 8 µg/mL
MIC (S. aureus 002N): 4 µg/mL
MIC (S. aureus K50S): 4 µg/mL
MIC (S. aureus 060S): 4 µg/mL
MIC (S. aureus 002S): 4 µg/mL
MIC (S. aureus 001N (MRSA)): 8 µg/mL
MIC (S. aureus ATCC 6538/P): 8 µg/mL
MIC (S. aureus 053N): 4 µg/mL
MIC (S. aureus 004N (MRSA)): 4 µg/mL
MIC (S. aureus 017N (MRSA)): 8 µg/mL
MIC (S. aureus ATCC 25923): 4 µg/mL
MIC (S. aureus 045N): 8 µg/mL
MIC (S. aureus 051S): 8 µg/mL
MIC (S. aureus 001S (MRSA)): 4 µg/mL
MIC (S. aureus 039N): 4 µg/mL
MIC (S. aureus 030N): 4 µg/mL
MIC (S. aureus 024N (MRSA)): 4 µg/mL
MIC (S. aureus 017S (MRSA)): 8 µg/mL
MIC (S. aureus 043SC (MRSA)): 8 µg/mL
MIC (S. aureus 048S): 4 µg/mL
MIC (S. aureus ATCC 6538): 4 µg/mL
MIC (S. aureus 051N (MRSA)): 8 µg/mL
MIC (S. aureus K19N): 8 µg/mL
MIC (S. aureus 015N (MRSA)): 8 µg/mL
MIC (S. aureus 033N): 4 µg/mL
MIC (S. aureus ATCC 9144): 8 µg/mL

GLFDVIKKVASVIGGL-NH2 [Citropin 1.1 AcO^−]
Mean value of MIC [2]: 10.0 µg/mL
Mean MIC values [2]: 10.0 µg/mL
MIC (S. aureus 005S): 2 µg/mL
MIC (S. aureus ATCC 12598): 8 µg/mL
MIC (S. aureus 013S): 2 µg/mL
MIC (S. aureus K46N): 16 µg/mL
MIC (S. aureus 002N): 16 µg/mL
MIC (S. aureus K50S): 1 µg/mL
MIC (S. aureus 060S): 1 µg/mL
MIC (S. aureus 002S): 16 µg/mL
MIC (S. aureus 001N (MRSA)): 16 µg/mL
MIC (S. aureus ATCC 6538/P): 8 µg/mL
MIC (S. aureus 053N): 16 µg/mL
MIC (S. aureus 004N (MRSA)): 8 µg/mL
MIC (S. aureus 017N (MRSA)): 4 µg/mL
MIC (S. aureus ATCC 25923): 16 µg/mL
MIC (S. aureus 045N): 16 µg/mL
MIC (S. aureus 051S): 4 µg/mL
MIC (S. aureus 001S (MRSA)): 16 µg/mL
MIC (S. aureus 039N): 8 µg/mL
MIC (S. aureus 030N): 16 µg/mL
MIC (S. aureus 024N (MRSA)): 2 µg/mL
MIC (S. aureus 017S (MRSA)): 8 µg/mL
MIC (S. aureus 043SC (MRSA)): 8 µg/mL
MIC (S. aureus 048S): 16 µg/mL
MIC (S. aureus ATCC 6538): 4 µg/mL
MIC (S. aureus 051N (MRSA)): 8 µg/mL
MIC (S. aureus K19N): 16 µg/mL
MIC (S. aureus 015N (MRSA)): 8 µg/mL
MIC (S. aureus 033N): 8 µg/mL
MIC (S. aureus ATCC 9144): 16 µg/mL

KWKLFKKIGAVLKVL-NH2 [CAMEL AcO^−]
Mean value of MIC [2]: ≤ 2.8 µg/mL
Mean MIC values [2]: ≤ 2.8 µg/mL
MIC (S. aureus 005S): ≤ (≤ alone stands for MIC ≤ 0.25 µg/mL)
MIC (S. aureus ATCC 12598): 2 µg/mL
MIC (S. aureus 013S): ≤ (≤ alone stands for MIC ≤ 0.25 µg/mL)
MIC (S. aureus K46N): 4 µg/mL
MIC (S. aureus 002N): 4 µg/mL
MIC (S. aureus K50S): 1 µg/mL
MIC (S. aureus 060S): 1 µg/mL
MIC (S. aureus 002S): 4 µg/mL
MIC (S. aureus 001N (MRSA)): 2 µg/mL
MIC (S. aureus ATCC 6538/P): 1 µg/mL
MIC (S. aureus 053N): 4 µg/mL
MIC (S. aureus 004N (MRSA)): 4 µg/mL
MIC (S. aureus 017N (MRSA)): 2 µg/mL
MIC (S. aureus ATCC 25923): 8 µg/mL
MIC (S. aureus 045N): 4 µg/mL
MIC (S. aureus 051S): 2 µg/mL
MIC (S. aureus 001S (MRSA)): 4 µg/mL
MIC (S. aureus 039N): 4 µg/mL
MIC (S. aureus 030N): 4 µg/mL
MIC (S. aureus 024N (MRSA)): ≤ (≤ alone stands for MIC ≤ 0.25 µg/mL)
MIC (S. aureus 017S (MRSA)): 2 µg/mL
MIC (S. aureus 043SC (MRSA)): 4 µg/mL
MIC (S. aureus 048S): 4 µg/mL
MIC (S. aureus ATCC 6538): ≤ (≤ alone stands for MIC ≤ 0.25 µg/mL)
MIC (S. aureus 051N (MRSA)): 2 µg/mL
MIC (S. aureus K19N): 2 µg/mL
MIC (S. aureus 015N (MRSA)): 4 µg/mL
MIC (S. aureus 033N): 4 µg/mL
MIC (S. aureus ATCC 9144): 2 µg/mL

GIGKFLKKAKKFGKAFVKILKK-NH2 [Pexiganan AcO^−]
hemolysis of RBCs at the mean MIC value ([1]; human RBCs, at the mean MIC value, in words): ignorable
stability of the salt form [3]: the most stable even during prolonged storage
Mean value of MIC [2]: 7.1 µg/mL
